{
  "source": "patent US20080132481A1",
  "about": "“INTERLEUKIN-4 GENE EXPRESSION INHIBITORS” (AVENTIS PHARMACEUTICALS INC., priority 2002, published 2008)",
  "key": {"ovalbumin specific IgE": {"tested_on": "ovalbumin specific IgE", "experiment": "OVA induced IgE in mice", "type": "in vivo, mouse", "conditions": "serum day 15, 10 mg/kg intraperitoneally once a day from day 6 to day 14, vehicle 150.8", "protocol": "Table 10 summarizes effects of 3-(4-pyridinylamino)-1H-indole-2-carboxylic acid on OVA induced IgE in mice. Female mice (5-8 week age, Balb/c, Charles River) were used in this study. Ovalbumin (Sigma) was adsorbed to Aluminum Hydroxide Adsorptive Gel, Inter, and injected 10 μg/0.2 ml/mouse intraperitoneally on experimental day 0 and day 7. Dexamethasone (Sigma) and 3-(4-pyridinylamino)-1H-indole-2-carboxylic acid (Example 28) were in 10% HPCD (Hydroxypropyl-β-Cyclodextrin, Aldrich). Dexamethasone (10 mg/kg), 3-(4-pyridinylamino)-1H-indole-2-carboxylic acid (Example 28) (3 and 10 mg/kg) and 10% HPCD (0.2 ml/mouse) are injected into mice intraperitoneally once a day from day 6 to day 14. They were bled at day 15. Serum ovalbumin specific IgE levels were determined by standard ELISA using a goat anti-mouse IgE antibody labeled with alkaline phosphatase. The anti-OVA titers were determined by malting serial dilutions of the test sera and comparing with vehicle control."}, "IL-4": {"tested_on": "IL-4", "experiment": "Human primary Th2 cells, IL-4 by ELISA", "type": "cell-based", "conditions": "for IL-4 (% control) mean: human Th2 cells, anti-CD3/anti-CD28, 48 hr; for IC50: human primary Th2 cells activated with anti-CD3 and anti-CD28 (Table 5)", "protocol": "Briefly, CD4^+CD45RA^+ T cells, isolated from donor peripheral blood mononuclear cells of healthy donors, are educated in the presence of anti-CD3/CD28 antibodies and various growth factors to obtain either a Th1-like or Th2-like phenotypes as determined by the known cytokine profiles of these two cell types.\n(§1) Peripheral blood mononuclear cells (PBMC) are prepared from human blood by Ficoll-Hypacque (Pharmacia). The cells are washed two times in Hanks balanced salt solution (HBSS) and counted.\nNaïve T cells (CD4^+/CD45RA) are prepared by negative selection method using following antibodies and Dynabeads: anti-CD8, anti-HLA-DR, (where HLA means human leucocyte antigen) anti-CD14, anti-CD16, anti-CD19, anti-CD45RO antibodies (all from R&D Systems, 1-2 μg/ml) are added to the cells, and the cells are kept on ice for 30 min. The cells are washed two times in HBSS, and goat anti-mouse Ig-beads, (bead:target ratio, 5:1) are added. The cells and beads are slowly rotated at 4° C. for 20 min. (following the protocol supplied from Dynal). The supernatant is removed and fresh goat anti-mouse Ig-beads are added to the supernatant, which is slowly rotated at 4° C. for 20 min. The cells are counted and phenotypically characterized by flow cytometric analysis.\nGeneration of Th1/Th2 cells: Twenty four well plates are coated with 300 μL anti-CD3 Ab (10 μg/ml, in PBS 1-2 h at 37° C. or overnight at 4° C.), and washed two times with PBS. […]/CD45RA^+ cells at a density of 10^6/ml in RPMI, is prepared and added to RPMI medium containing 10% Hyclone serum/glutamine and 1-2 μg/ml anti-CD28 Ab. The cells are split in two aliquots. For Th1 cells: anti-IL-4 Ab (1-2 μg/ml), IFN-γ (1 μg/ml, or 5000 units/ml) are added to the wells. For Th2 cells: IL-4 (100-200 ng/ml), anti-IFN-γ neutralizing Ab (1-2 μg/ml), anti-IL-12 neutralizing Ab (1-2 μg/ml) are added into the wells. The cells are incubated for 2-3 days at 37° C. The cells are transferred to fresh wells and grown in 200 units/ml IL-2 for 2 weeks by feeding them every other day with IL-2 containing medium and splitting the cultures 1:2 or 1:3 as needed. The degree of polarization is determined by intracellular staining of cells with anti-IFN-γ and anti-IL-4 antibodies from Pharmingen, and using flow cytometry from Becton Dickinson (BD), according to manufacturers description. The cells are stimulated with PHA and alloantigens at day 14 and 28 as described below. Eight days after the second allostimulation the cells can be used for compound screening or frozen for future use. For compound testing, large quantities of Th1 and Th2 cells derived from a given donor (NYTh1 and NYTh2) were expanded and frozen as aliquots in liquid nitrogen. The cells are thawed and cultured as and when needed. The thawed cells are stimulated with alloantigen/PHA combination. The cells are used for compound screening after 8-10 days in culture.\nRe-stimulation by allogeneic cells: Human PBMCs, to be used as alloantigens, are isolated from freshly drawn blood by Ficoll separation. Cells are resuspended in medium containing 50 μg/ml mitomycin C and incubated for 40 minutes at 37° C. and then washed extensively to remove all of the Mitomycin C. Cells are counted and diluted to a final concentration of 2×10^6/ml in medium containing 10 μg/ml PHA and 200 units/ml IL-2."}, "[1]": {"tested_on": "sheep allergic to Ascaris suum", "experiment": "Sheep asthma model (Ascaris suum antigen challenge)", "type": "in vivo", "protocol": "Briefly, transpulmonary pressure, pulmonary resistance (RL), specific lung resistance (SRL airway hyperreactivity, airway responsiveness, are determined.\nVenous blood samples (˜5 ml) are obtained from a peripheral leg vein or the jugular vein for pharmacokinetic data. Measurement of Airway Mechanics: The unsedated sheep are restrained in a cart in the prone position with their heads immobilized. After topical anesthesia of the nasal passages with 2% lidocaine solution, a balloon catheter is advanced through one nostril into the lower esophagus. The animals are […] with a cuffed endotracheal tube through the other nostril using a flexible fiberoptic bronchoscope as a guide. (The cuff of the endotracheal tube is inflated only for the measurement of airway mechanics and during aerosol challenges to prevent undue discomfort. This procedure has no effect on airway mechanics). Pleural pressure is estimated with the esophageal balloon catheter (filled with one ml of air) which is positioned 5-10 cm from the gastroesophageal junction. In this position the end expiratory pleural pressure ranges between −2 and −5 cm H20. Once the balloon is placed, it is secured so that it remains in position for the duration of the experiment. Lateral pressure in the trachea is measured with a sidehole catheter (inner dimension, 2.5 mm) advanced through and positioned distal to the tip of the endotracheal tube. Transpulmonary pressure, the difference between tracheal and pleural pressure, is measured with a differential pressure transducer catheter system. […] The signals of flow and transpulmonary pressure is recorded on an oscilloscope recorder which is linked to a computer for on-line calculation of RL from transpulmonary pressure, respiratory volume (obtained by digital integration) and flow. […] Immediately after the measurement of RL, thoracic gas volume (Vtg) is measured in a constant volume body plethysmograph to obtain specific lung resistance (SRL=RL·Vtg) in L×cm H20/LPS. […]"}, "Swiss 3T3 fibroblasts": {"tested_on": "Swiss 3T3 fibroblasts", "experiment": "In vitro cytotoxicity assay on contact inhibited 3T3 fibroblasts (MTS)", "type": "cell-based", "protocol": "Other toxicity assays may be used.\nAny compound killing 3T3 fibroblast cells was omitted from further studies.\nContact inhibited Swiss 3T3 fibroblasts are purchased from ATCC.\nAll compound dilutions are assayed in triplicate. […] Cells are returned to the incubator for 2 days.\nMedia is added to blank wells for background calculations.\nNote that starting concentration of CsA was 1 μM."}, "IFN-γ": {"tested_on": "IFN-γ", "experiment": "Human primary Th2 cells, IFN-γ by ELISA", "type": "cell-based", "conditions": "human primary Th2 cells activated with anti-CD3 and anti-CD28 (Table 5)", "excerpt": "(§2) The methods described herein permit polarization of primary human peripheral blood cells into Th1 and Th2 cells and generation of sufficiently large quantities of Th1 and Th2 cells, e.g., billions of cells, to allow drug screening. Briefly, CD4^+CD45RA^+ T cells, isolated from donor peripheral blood mononuclear cells of healthy donors, are educated in the presence of anti-CD3/CD28 antibodies and various growth factors to obtain either a Th1-like or Th2-like phenotypes as determined by the known cytokine profiles of these two cell types. Primary human Th1 cells secreted IFN-γ and IL-2 cytokines while primary human Th2 cells secreted IL-4, IL-5, IL-13 and basal amounts of IFN-γ that are measurable by enzyme linked immuno absorption assay (ELISA).\nas §1\n(§3) Naïve T cells (CD4^+/CD45RA) are prepared by negative selection method using following antibodies and Dynabeads: anti-CD8, anti-HLA-DR, (where HLA means human leucocyte antigen) anti-CD14, anti-CD16, anti-CD19, anti-CD45RO antibodies (all from R&D Systems, 1-2 μg/ml) are added to the cells, and the cells are kept on ice for 30 min. […] The cells are counted and phenotypically characterized by flow cytometric analysis. […]"}, "Human Th2 cells": {"tested_on": "Human Th2 cells", "experiment": "Human primary Th2 cells, proliferation (MTS viability test)", "type": "cell-based", "conditions": "human primary Th2 cells activated with anti-CD3 and anti-CD28 (Table 5); read-out: Prolif. IC50", "excerpt": "as §2, §1, §3"}, "IL-5": {"tested_on": "IL-5", "experiment": "Human primary Th2 cells, IL-5 by ELISA", "type": "cell-based", "conditions": "human primary Th2 cells activated with anti-CD3 and anti-CD28 (Table 5)", "excerpt": "as §2, §1, §3"}, "IL-13": {"tested_on": "IL-13", "experiment": "Human primary Th2 cells, IL-13 by ELISA", "type": "cell-based", "conditions": "human primary Th2 cells activated with anti-CD3 and anti-CD28 (Table 5)", "excerpt": "as §2, §1, §3"}, "[2]": {"conditions": "3 mg/kg aerosol 30 min before antigen challenge, 2 sheep per group (FIG. 3A)"}},
  "data": [
    {"smiles": "C[C@@H]1C[C@H]2[C@@H]3CCC4=CC(=O)C=C[C@]4(C)[C@@]3(F)[C@@H](O)C[C@]2(C)[C@@]1(O)C(=O)CO", "note": "[Dexamethasone]", "values": [
      {"measurement": "Anti-OVA IgE", "setting": "ovalbumin specific IgE", "result": 27.4}
    ]},
    {"smiles": "O=C(O)c1[nH]c2ccccc2c1Nc1ccncc1", "note": "[Example 28, 3-(4-Pyridinylamino)-1H-indole-2-carboxylic acid]", "values": [
      {"measurement": "IL-4 (% control) mean", "setting": "IL-4; 0.01 μM", "result": 102.15, "unit": "% control"},
      {"measurement": "IL-4 (% control) mean", "setting": "IL-4; 0.03 μM", "result": 65.30, "unit": "% control"},
      {"measurement": "IL-4 (% control) mean", "setting": "IL-4; 0.1 μM", "result": 59.75, "unit": "% control"},
      {"measurement": "IL-4 (% control) mean", "setting": "IL-4; 0.3 μM", "result": 45.00, "unit": "% control"},
      {"measurement": "IL-4 (% control) mean", "setting": "IL-4; 1 μM", "result": 42.55, "unit": "% control"},
      {"measurement": "IL-4 (% control) mean", "setting": "IL-4; 3 μM", "result": 36.40, "unit": "% control"},
      {"measurement": "IL-4 (% control) mean", "setting": "IL-4; 10 μM", "result": 30.80, "unit": "% control"},
      {"measurement": "antigen-induced early bronchial response: acute increase in specific lung resistance (SRL)", "setting": "[1]; [2]", "result": "did not affect"},
      {"measurement": "antigen-induced late bronchial response (SRL)", "setting": "[1]; [2]", "result": "blocked the late response"},
      {"measurement": "post challenge airway responsiveness (decrease of PC400 after antigen challenge)", "setting": "[1]; 3 mg/kg, 2 sheep (FIG. 3B)", "result": "prevented this effect"},
      {"measurement": "toxic effects on quiescent 3T3 cells (in words)", "setting": "Swiss 3T3 fibroblasts", "result": "no toxic effects"}
    ]},
    {"smiles": "O=C(O)c1[nH]c2cc(Cl)ccc2c1NC(=O)C1CCNCC1", "note": "[Example 82, 3-((4-Piperidineacyl)amino)-6-chloro-1H-indole-2-carboxylic acid]", "values": [
      {"measurement": "IC50", "setting": "IFN-γ", "result": "> 10", "unit": "µM"},
      {"measurement": "IC50", "setting": "Human Th2 cells", "result": "> 10", "unit": "µM"},
      {"measurement": "IC50", "setting": "IL-4", "result": 0.15, "unit": "µM"},
      {"measurement": "IC50", "setting": "IL-5", "result": "> 10", "unit": "µM"},
      {"measurement": "IC50", "setting": "IL-13", "result": "> 10", "unit": "µM"}
    ]},
    {"smiles": "CCOC(=O)c1[nH]c2cc(Cl)cc(Cl)c2c1N(C)C(=O)c1ccccc1", "note": "[Example 83, 3-((Benzoyl)methylamino)-4,6-dichloro-1H-indole-2-carboxylic acid ethyl ester]", "values": [
      {"measurement": "IC50", "setting": "IFN-γ", "result": "> 10", "unit": "µM"},
      {"measurement": "IC50", "setting": "Human Th2 cells", "result": "> 10", "unit": "µM"},
      {"measurement": "IC50", "setting": "IL-4", "result": 1, "unit": "µM"},
      {"measurement": "IC50", "setting": "IL-5", "result": "> 10", "unit": "µM"},
      {"measurement": "IC50", "setting": "IL-13", "result": "> 10", "unit": "µM"}
    ]}
  ]
}
